Test results published in patent US20150329387A1, “SYSTEMS AND METHODS FOR GENERATING HALOAMINES AND APPLICATION THEREOF IN OIL AND GAS OPERATIONS” (BUCKMAN LABORATORIES INTERNATIONAL, INC., priority 2014, published 2015).

Legend:
Assay type in all cases: cell-based
anaerobes = assay: Kill study: ATP test of anaerobically captured oil field influent water (LuminUltra QUO-M kit); design: ATP readings: unit not given here
Description: In an oil and gas field in the western USA, MCA was tested in comparison with methylene bis(thiocyanate), (MTC) in a weekly batch treatment and is fed for 2-3 hours at 200 ppm (as product).
A solution of MCA Working Solution was prepared using Busan 1474 and Bulab 6004 (high alkalinity bleach). The reaction of these two components diluted in water at the proper equimolar ratios and proper pH produces a stable high concentration of biocide. A known concentration of MCA was added to a specific volume of influent water which had to be captured under anaerobic conditions and kept in an incubation chamber when not being used because the primary organisms of interest (anaerobes) are very susceptible to both oxygen and temperature changes. Therefore, as soon as the samples were collected, the head space of the bottles were purged with Nitrogen and then sealed with a rubber stopper (which will permit the insertion of a hypodermic needle) and then crimped into place with an aluminium seal.
Owing to the fact that there is significant oil in the water, the organisms are coated with a fine layer of organic material, thus necessitating the usage of an ATP test kit which washes away the layer of oil prior to ATP testing. The kit employed for this testing is manufactured by LuminUltra and is identified as the Quench Gone Organic-Modified (QUO-M) test kit.
Furthermore, in order to ensure that adequate MCA was present to penetrate this oil layer (and have an apples to apples comparison in performance), the MCA was dosed at the same level as the MTC at a concentration of 200 ppm.
The MCA was tested at intervals between this period (30, 60, 180, and 240 minutes).
Bottles were collected and the initial concentration of ATP for each bottle was measured and then dosed with 200 ppm of MCA and MTC respectively and one bottle was not dosed to serve as a growth control.

[1] = test system: total biological organism concentration; assay: ATP test of biocides in produced water from oil field water/oil/gas separator (LuminUltra QBG kit)
From the text: A one-liter sample of water was obtained from the mechanical water/oil/gas separator from a producing oil field in the western USA. The one liter sample was separated into four aliquots, one control and three test samples.
Adenosine triphosphate (ATP) is the energy source for all living organisms. Measurement of the ATP concentration in a water sample gives a good indication of the concentration of total biological organism concentration. A number of different companies including 3M and LuminUltra manufacture test kits. For this testing, the LuminUltra QBG test kit was employed.
Each of the non-control samples were dosed with one of three different biocides: MTC-10 (a 10% solution of methylenebis(thiocyanate) at 22 ppm active concentration; Diald 25 (a 25% solution of Glutaraldehyde) at 50 ppm active; and monochloramine (MCA) at a concentration of 7.5 ppm. After 30 and 60 minutes of exposure, ATP levels were measured and recorded.

[2] = Previous testing of kill time and cell penetration
Description: Previous testing had shown that the MCA was killing in 20 minutes what it took other biocides (i.e. MTC and Glutaraldehyde) to accomplish in four hours.

[3] = 0 min, initial reading of the bottle before dosing at 200 ppm
[4] = 180 min after dosing at 200 ppm
[5] = 240 min after dosing at 200 ppm

SMILES	ATP readings (anaerobes; [3])	Percent reduction in ATP level (percent kill) (anaerobes; 30 min, 200 ppm) [%]	ATP readings (anaerobes; 30 min after dosing at 200 ppm)	Percent reduction in ATP level (percent kill) (anaerobes; 60 min, 200 ppm) [%]	ATP readings (anaerobes; 60 min after dosing at 200 ppm)	Percent reduction in ATP level (percent kill) (anaerobes; 180 min, 200 ppm) [%]	ATP readings (anaerobes; [4])	Percent reduction in ATP level (percent kill) (anaerobes; 240 min, 200 ppm) [%]	ATP readings (anaerobes; [5])	Effectiveness relative to MTC-10 on an activity percentage basis ([1]; 30 minutes and 60 minutes of exposure, Figure-3)	Performance better than Diald-25 on an activity percentage basis ([1]; 60 minutes of exposure, Figure-3)	Performance on a product percentage basis compared with Diald-25 ([1]; MCA 7.5 ppm vs Diald 25 50 ppm active, ATP after 30 and 60 minutes, Figure-2)	Performance on a product percentage basis compared with MTC-10 ([1]; MCA 7.5 ppm vs MTC-10 22 ppm active, ATP after 30 and 60 minutes, Figure-2)	Performance relative to Diald-25 on an activity percentage basis ([1]; first 30 minutes, Figure-3) [×]	Cell penetration ([2]; compared with MTC)	Time to accomplish kill ([2]; previous testing) [min]	Overall performance in kill study compared with MCA (anaerobes; 200 ppm, FIG. 4 / Table 1)
NCl [MCA, monochloramine]	321.4	92	26.05	94	19.2	95	17.4	96	11.9	greater than 3 ×	more than 20%	better than Diald-25	as well as MTC-10	~2	better than for MTC	20	
N#CSCSC#N [MTC, methylene bis(thiocyanate), reference compound]	217.3						16.9	0.97	6.12								performed slightly better
